Literature values in CN111214447A, “一种甲磺酸沙芬酰胺固体组合物及其制备方法” (Beijing Wanquan Dezhong Medical Biological Technology Co Ltd, priority 2018, dated 2020).
Converted amounts (≈) assume the structure as drawn.

Details: aqueous medium, pH=7

Question: Which solubility does the source give for `C[C@H](NCc1ccc(OCc2cccc(F)c2)cc1)C(N)=O` [沙芬酰胺, 甲磺酸] here?
Answer: Its solubility is 10 µg/mL (≈ 33.1 µM).
